The results in this text go back to patent US20020065213A1, “METHODS AND COMPOSITIONS FOR NONVIRAL GENE DELIVERY” (priority 1998, published 2002).

In assay [1] the test system is ICR mice. Nature of the assay: Host pretreatment before i.v. CLDC or naked DNA, tissue luciferase activity. The format is in vivo, mouse. The procedure:
Plasmid: p4241 (HCMV-luciferase, see Liu et al., 1997).
Liposomes: DOTIM:chol MLV in 1:1 molar ratio.
DNA:Liposome Ratio: liposome:plasmid 1:16 (μg plasmid DNA to nanomoles total lipid).
Pretreatment: Individual mice in groups of 5 received either 200 μl of D5W only by IV injection, 1 mg dexamethasone (Sigma) in 200 μl D5W by IV tail vein injection, 250 μg Ticlopidine (Sigma) dissolved in 200 μl D5W by IV injection, 175 μg ammonium chloride (Fisher) dissolved in 1000 μl D5W by IP injection, respectively, four hours before IV injection of CLDC. For 4-APP pretreatment, a group of 5 mice were IP injected with 1.5 mg of 4-Aminopyrazolo(3,4d)-pyrimidine (Sigma, A2630) dissolved in 1 ml 0.01 M sodium phosphate, pH 2.5, daily for three days before receiving an IV injection of p4241-containing CLDC as described above. Another group of 5 mice received 1 ml 0.01 M Sodium Phosphate, pH 2.5 solution by IP injection daily for three days before receiving an injection of IV CLDC as above, thus serving as control for 4-APP pretreatment group.
DNA dose: 40 μg plasmid DNA in 200 μl of 5% dextrose in water (D5@) was injected by tail vein per mouse.
Animals: ICR mice:female, 25 grams (Simonsen Labs, Gilroy, Calif.).
Quantitation of luciferase: Twenty-four hours after injection of CLDC, mice were sacrificed in a CO2 chamber, and lungs, heart, spleen and liver were collected and assayed for luciferase activity. Relative light units were converted to luciferase activity, and an unpaired, two side Student's t test applied for statistical analysis of potential differences between groups as described previously (Liu et al., 1997).
In another experiment, the effect of pretreatment on subsequent expression of the same plasmids delivered as naked DNA was examined. Pretreated animals were injected with 6.25 mg of mannitol (Sigma, MO) in 200 microliters of water 2 hours or 24 hours prior to iv administration of the p4241 luciferase vector as naked DNA in water, 50% glycerol or D5W. Control animals received water alone as a pretreatment. […]

The subject of assay [2] is murine B 16 cells. Kind of assay: Inhibition of in vitro CLDC-mediated transfection (luciferase) by polysaccharide pretreatment.
The subject of assay [3] is B16 cells, PPC-1 cells. Kind of assay: Effect on calcium phosphate, adenoviral and electroporation transfection in vitro. The format is cell-based. The procedure: B16 cells were electroporated with p4241 as per BioRad (Hercules, Calif.) instructions for the GenePulser II. Calcium phosphate transfections were performed as described in the manufacturer's instructions (Gibco BRL, Grand Island, N.Y.). Adenoviral infection of PPC-1 cells was performed as previously described (Graham and […], 1991).

Assay [4] concerns B16 cells. Nature of the assay: DNA uptake by cells after CLDC transfection (luciferase, Southern analysis of nuclear and total DNA). The format is cell-based, mouse. The procedure: Southern analysis. Isolation of total DNA from mouse tissues was performed as described (Liu et al., 1997). Approximately 2×10^6 B16 cells were cultured in 100 mm dishes for each DNA extraction from cultured cells. Two hundred nanograms of DNA per lane were fractionated on 1% agarose/1X TAE gels overnight. Blotting onto Hybond membrane (Amersham, Arlington Heights, Ill.), prehybridization, hybridization, and washes were performed as described (Sambrook et al., 1989). A 1.2 kb HindIII/EcoRV gel-purified fragment of luciferase from p4241 was radioactively labelled using the Random Primed DNA Labeling Kit (Boehringer Mannheim, Indianapolis, Ind.). Nuclei were isolated from 2×10^6 B16 cells as described (Sambrook et al., 1989), and lysed in NP40 lysis buffer (10 mM Tris, pH 7.4, 10 mM sodium chloride, 3 mM magnesium chloride, and 0.5% nonidet P-40). Nuclear DNA was then isolated from washed nuclei using the same technique as for total DNA isolation (Sambrook et al., 1989).
Fucoidan inhibited CLDC-mediated transfection in vitro by blocking DNA uptake by cells. Nuclei were isolated from cells untreated or pretreated with fucoidan and subsequently transfected with CLDC, and nuclear DNA was assayed for the presence of the luciferase plasmid used in making the complex. The nuclei of cells untreated with fucoidan contained luciferase plasmid, as expected from the high levels of luciferase activity observed in untreated cells. Therefore, DNA did traverse the cell membranes of untreated cells.

Assay [5] has as its system ICR female mice. Kind of assay: Pretreatment of mice before intravenous CLDC (p4241): luciferase, Southern analysis, rhodamine-lipid. The format is in vivo, mouse. The procedure: In vivo transfections. Each mouse received 50 μg p4241 complexed to DOTIM:cholesterol MLV containing 1 mole % rhodamine-PE at a ratio of 1:16 (μg DNA per nmole total lipid). Approximately 25 g ICR female mice (Simonson, Gilroy, Calif.) received 200 μl of CLDC intravenously by tail vein injection. Pretreatments of mice were also by intravenous tail vein injections. Fucoidan, dissolved in phosphate buffered saline (PBS), was pre-injected at a dosage of 500 μg per mouse 0, 1, 2, 10, 24, or 48 hrs prior to CLDC injection. Heparinase I and III (Sigma) were dissolved in 0.15 M sodium chloride at a concentration of 75 units per 100 μl, and 100 μl per mouse were injected 15 minutes prior to injection of CLDC. Control mice were preinjected at appropriate times with either PBS or 0.15 M sodium chloride. As an additional control, heparinase I was boiled for 10 minutes to denature and deactivate the enzyme prior to pre-injection. Mice were harvested 24 hours post-CLDC injection, and pieces of lung, liver, heart, and spleen were placed in 1X lysis buffer (Promega, Madison, Wis.) on ice for luciferase assays (Liu et al., 1997). Samples of liver and lung were frozen on dry ice prior to Bligh Dyer extractions for rhodamine-liposome fluorescence analysis and isolation of DNA for Southern analysis as described (Liu et al., 1997).

Where [6] appears, read: cells pretreated for 30 minutes with 1 μM.
Setting [7] is: iv 15 minutes before CLDC injection.

Regarding `Nc1ncnc2[nH]ncc12` [Plasmid 4-APP, 4-Aminopyrazolo(3,4d)-pyrimidine], the “luciferase activity versus buffer-pretreated mice” value in assay [1] (preinjection before iv CLDC (p4241), 24 hours after CLDC) is given as “significantly increased luciferase activity”.

On to `OC[C@@H](O)[C@@H](O)[C@H](O)[C@H](O)CO` [mannitol], for which, in assay [1] (6.25 mg 2 hours prior to iv naked DNA), the “in vivo expression of luciferase from p4241 versus controls” value is on record as “significantly higher”. Also, the luciferase expression entry in assay [1] (6.25 mg 24 hours prior to p4241) was “Some increase”.

Take dextran: in assay [2], the “CLDC transfection at high concentrations” value was “significant elevation of transfection” and the “CLDC transfection in vitro after pretreatment of cells” value (“CLDC transfection in vitro” below) is reported as “failed to inhibit transfection”.

Regarding dextran sulfate, the “CLDC transfection in vitro” value in assay [2] was “largely blocked”. In addition, in assay [2] (murine B 16 cells), the “concentration sufficient to block transfection” value is on record as 10 nM.

Take fucoidan: the “CLDC transfection in vitro” value in assay [2] is given as “largely blocked”. For the same compound, in assay [2] (10 nM), the “effect on CLDC-mediated transfection, cells pretreated” value is “little effect”. Moreover, the “transfection by calcium phosphate” value in assay [3] is listed as “inhibited the transfection”. In assay [4] (setting [6]), the “luciferase DNA in nuclei” value is recorded as “no luciferase DNA in their nuclei” and the “luciferase expression of cells” value is recorded as “did not express luciferase”. Further, the “Southern analysis of total DNA from whole cell extracts” value in assay [4] (pretreated cultured cells) was “failed to show evidence of any DNA crossing the cell membranes”. The “luciferase activity in lung and heart tissues” value in assay [5] (500 μg per mouse iv, 1 hour before CLDC) is given as “drastic reductions in luciferase activity”. In assay [5] (10 hours post exposure), the “CLDC mediated transfection of lung cells” value is reported as “still inhibits CLDC mediated transfection of lung cells”. Further, in assay [5] (one hour pretreatment), the “rhodamine-lipid found in the lung and liver” value is given as “significantly decreased levels of rhodamine-lipid”. For the same compound, the “p4241 plasmid in total DNA from lungs and livers (Southern analysis)” value in assay [5] (pretreated for 1 hour) is “decreased levels of p4241 plasmid”. Besides, in assay [5] (pretreated for 1 hour in vivo), the “magnitude of luciferase depression in tissues” value is recorded as “approximately 100 fold”. Moreover, in assay [5] (treated versus untreated animals), the “decrease in p4241 plasmid in nuclear DNA isolated from lungs” value is given as 3 fold.

On to heparin, for which the “CLDC transfection in vitro” value in assay [2] was “largely blocked”. Moreover, in assay [5] (mouse, in vivo, iv), the “CLDC-mediated gene transfer following intravenous injection of CLDC into mice” value was “abolished CLDC-mediated gene transfer”.

For the compound heparinase I, in assay [5] (setting [7]), the “reporter plasmid DNA in lungs, fold less than control lungs (Southern analysis)” value was 2 fold; the “rhodamine labelled lipid recovered from lungs” value was “significantly decreased the levels of rhodamine labelled lipid”; the “transfection efficiency of CLDC (luciferase) in lungs, hearts and spleens” value is “significantly decreased”.
